These results are taken from patent US6752986B2, “Composition and methods for affecting metallocorrinoid uptake” (The Cleveland Clinic Foundation, priority 2001, dated 2004).

Assay [1] has as its system NIH-OVCAR-3 ovarian carcinoma. Kind of assay: SRB anti-proliferative cell survival assay, NIH-OVCAR-3. The format is cell-based, human. Conditions: concentration used in the Annexin V assay for 48 hrs.
The next assay relates to WM9 human melanoma. Kind of assay: SRB anti-proliferative cell survival assay, WM9. It is filed as cell-based. Conditions: WM9 versus NIH-OVCAR-3. The procedure:
WM9 human melanoma was evaluated after 4 days growth.
Cells (2×10^3) were seeded in 96-well plates. Data points represent mean of eight replicates. (n=8). A control plate was fixed 4 hr after seeding (to allow cells to attach) to determine the initial seeding density (Aini). This was defined as 0% growth. To the wells of the seeded experimental plate, IFN-β was added and incubation continued for 3-5 days. Untreated cell controls were included. Growth obtained with this control was defined as 100% (Afin). To determine cell number, cells were fixed with 10% trichloroacetic acid at 4° C. for 1 h. They were stained with 0.4% sulforhodamine B prepared in 1% acetic acid at 25° C. for 1 h (27). The wells were washed with 1% acetic acid. Bound dye was eluted with 100 μl of 10 mM Tris-HCl, ph 10.5 and quantitated in a microplate reader at 570 nm. Growth in IFN-β-treated wells (experimental=exp) was expressed as a percentage of untreated control growth (mean±SEM).
%Control growth=100%×(Aexp−Aini)/(Afin−Aini)
%STD=100%×(STDexp/(Afin−Aini))
%SEM=100%×(SEMexp/(Afin−Aini) ) where SEM=STD/✓n

Assay [2] has as its system subcutaneous NIH-OVCAR-3 tumors. Kind of assay: Intraperitoneal NO-Cbl treatment of established subcutaneous NIH-OVCAR-3 tumors. It is filed as in vivo, nude mice.
Assay [3] concerns five human hematological and eight solid tumor cell lines. The note with it: cited from earlier work.
The subject of a further assay is L1210. Conditions: L1210, high levels of Cbl; cited from earlier work.
A further assay concerns P388D1. The note with it: P388D1, high levels of Cbl; cited from earlier work.
The next assay has as its system CCRF-CEM. Conditions: high levels of Cbl; cited from earlier work.
Another assay relates to NCTC929. The note with it: NCTC929, high levels of Cbl; cited from earlier work.

The compound Nitrosylcobalamin [NO-Cbl] showed an ID25 in assay [1] of 10 µM. In addition, the “ID50 of WM9 cells compared to NIH-OVCAR-3” value in the assay on WM9 human melanoma is “higher ID50”. In addition, in assay [2] (at the end of the study), the “mean volume of untreated tumors compared to NO-Cbl treated tumors” value is listed as 18 fold. For the same compound, the “decrease in volume of treated tumors” value in assay [2] (during the treatment period) came to 4 fold. Further, the tumor response result in assay [2] (intraperitoneal NO-Cbl, established subcutaneous NIH-OVCAR-3 tumors) is given as “tumor regression”. The “ID50 lower in tumor cell lines compared to benign cells (fibroblasts and endothelial cells)” value in assay [3] was 5-100 fold.

As for `C/C1=C2/[N-][C@H]([C@H](CC(N)=O)[C@@]2(C)CCC(=O)NC[C@@H](C)OP(=O)([O-])O[C@H]2[C@@H](O)[C@@H](n3cnc4cc(C)c(C)cc43)O[C@@H]2CO)[C@]2(C)N=C(/C(C)=C3N=C(/C=C4N=C1[C@@H](CCC(N)=O)C\4(C)C)[C@@H](CCC(N)=O)[C@]\3(C)CC(N)=O)[C@@H](CCC(N)=O)[C@]2(C)CC(N)=O.[Co]` [Cbl, cobalamin], the cell proliferation result in the assay on L1210, in the assay with P388D1, with CCRF-CEM and in the assay with NCTC929 was “inhibited” throughout.
